Assay results from US11607422B2, “Uttroside B and derivatives thereof as therapeutics for hepatocellular carcinoma” (Rajiv Gandhi Centre for Biotechnology, an Autonomous …, priority 2016, dated 2023).

Key:
[1] = system: normal immortalized hepatocytes (Chang Liver); assay: MTT assay in normal immortalized hepatocytes; assay type: cell-based; conditions: at 1250 nM, 72 h
Experimental: (§1) FIG. 2A is a graph comparison of IC50 of Uttroside B in a panel of cancer cells of different origin. The cancer cell lines HeLa, A375, HepG2, MDA-MB-231, HL 60, A549 and HCT116 were treated with Uttroside B as indicated, incubated for 72 h and the cell viability was assessed by MTT assay. FIG. 2B is a graph showing dose dependent effect of Uttroside B in the liver cancer cell lines and in normal immortalized hepatocytes. The liver cancer cell lines HepG2, Hep3B, SKHEP-1, Huh-7 and normal hepatocytes (Chang liver), were treated with Uttroside B incubated for 72 h and the cell viability was assessed by MTT assay. FIG. 2C is a graph comparison of IC50 of Uttroside B with sorafenib. HepG2 cells were treated with Uttroside B as indicated, incubated for 72 h, and the cell viability was assessed by MTT assay. […] The clones developed were counted and plotted as a graph. Colony containing more than four cells was counted as one clone. […]
(§2) MTT [3-(4,5-dimethylthiazole-2-yl)-2,5-diphenyltetrazolium bromide] assay is a standard colorimetric assay, suitable for analyzing proliferation, viability, and cytotoxicity. […] After overnight incubation, cells were treated with different concentrations of organic extracts (25-250 μg/ml) of S. nigrum and the isolated compound Uttroside B (250-1250 nM) for 72 h and cytotoxicity was measured. […]

HeLa = assay: MTT cell viability assay in HeLa cells; assay type: cell-based; conditions: 72 h
Experimental: as §1, §2

[2] = system: hepatocellular carcinoma cells (HepG2, Hep3B, SKHep1, and Huh-7); assay: MTT assay in different hepatocellular carcinoma cells; assay type: cell-based; conditions: SKHep1, Huh-7, 72 h, read-out: IC50 in liver cancer cells
Experimental: as §1, §2

HCT-116 = conditions: literature ref 13; read-out: IC50, cytotoxicity against HCT-116 (colon cancer cells); cited from earlier work
Swiss albino mice = assay: Chronic toxicity study (3 months); assay type: in vivo
Experimental: Swiss albino mice were randomly divided into 2 groups of 6 animals each and were allowed to acclimatize for a week. Group I received vehicle and Group II received 10 mg/Kg body weight of Uttroside B. The compounds were given as intraperitonial injection on alternate days, thrice in a week, for 3 months. The animals were observed frequently during this period after which, the animals were euthanized in a CO2 chamber. The blood serum was collected for analyzing biochemical parameters of liver function, the abnormal values of which are indicative of hepatotoxicity. The liver was fixed in 10% buffered formalin and the thin cryostat sections were stained with haematoxylin and eosin for histopathological evaluation.^9

AP-1 in HepG2 cells = assay: Electrophoretic mobility shift assay of AP-1; assay type: cell-based, human; conditions: HepG2, EMSA
Experimental: Stocks of crude extracts and isolated compound of S. nigrum was prepared in DMSO for the in vitro studies and stored at −20° C. The DMSO concentration in all studies, including controls, was ≤0.2%. Cell viability assay was performed after 72 h of drug treatment while whole cell lysate preparation and cell cycle analysis were done after 24 h and 48 h of drug treatment. For studying NF-κB and AP-1, Uttroside B was incubated for 2 h before extraction.
Radiolabeling of oligonucleotide probes for electrophoretic mobility shift assay:HepG2 Cells were treated with Uttroside B for two hours, scraped and suspended in 150 μL of lysis buffer (10 mM HEPES(pH 7.9), 10 mM KCl, 0.1 mM EDTA, 0.1 mM EGTA, 1 mM DTT, 0.5 mMphenylmethylsulfonyl fluoride, 2 μg/mL leupeptin, 2 μg/mL aprotinin, 0.5 mg/ml benzamidine) for 30 min, after which 4.5 μl of 10% Nonidet P-40 was added. […]

C[C@H](CC[C@@]1(O)O[C@H]2C[C@H]3[C@@H]4CC[C@H]5C[C@@H](O[C@@H]6O[C@H](CO)[C@H](O[C@@H]7O[C@H](CO)[C@@H](O)[C@H](O[C@@H]8OC[C@@H](O)[C@H](O)[C@H]8O)[C@H]7O[C@@H]7O[C@H](CO)[C@@H](O)[C@H](O)[C@H]7O)[C@H](O)[C@H]6O)CC[C@]5(C)[C@H]4CC[C@]3(C)[C@H]2[C@@H]1C)CO[C@@H]1O[C@H](CO)[C@@H](O)[C@H](O)[C@H]1O [Uttroside B]
viable normal immortalized hepatocytes [1]: 70% | IC50 (HeLa): 1500 nM | IC50 [2]: 400 to 600 nM | IC50 (HCT-116): 2330 nM | histopathological analysis of liver tissue, chronic (Swiss albino mice; 10 mg/kg): did not manifest any morphological change characteristic of toxicity | total and differential WBC count, serum AST, ALT, ALP and BUN (Swiss albino mice; 10 mg/kg i.p. thrice weekly, 3 months): no significant difference in any of these parameters from their normal range of values | AP-1 (downstream target of MAPK signaling) (AP-1 in HepG2 cells): down-regulated
